Test results taken from patent US9045474B2, “Compounds and compositions for mitigating tissue damage and lethality” (The Regents of the University of California, priority 2010, dated 2015).
Values joined by “and” are separate entries in the source; they are usually repeats but may differ in a detail not shown here. Equal values may be shown once. “Also recorded” adds a separate entry of the source.

Experiments:
[1] = system: primary human keratinocytes; assay: Senescence of primary keratinocytes in co-culture; type: cell-based
[2] = system: yeast DEL tester strain RS112; assay: DEL assay, UV radiation-induced damage; type: cell-based, Saccharomyces cerevisiae
Protocol: DEL tester strain was irradiated with 4000 J/m^2 in the ultraviolet range and treated with Yel001 or Yel002 at 60 minutes at the concentration of 15 uM.

RS112 cells = assay: DEL plating assay for mitigation of radiation damage (treatment after 2000Gy); type: cell-based, Saccharomyces cerevisiae
Protocol: The mitigation protocol is based on the same DEL assay principle of recombination of the disrupted HIS3 gene that renders the cells capable of synthesizing its own histidine following radiation exposure. To establish mitigation properties of the compounds in question, the classical DEL protocol is modified as follows: first the RS112 cells are irradiated with 2000Gy and then the treatments are administered at 0 min, 10 min, 20 min, 30 min, and 60 min, incubated for 2 hrs, and plated on +13 and −His agar plates. The efficacy of the compounds is scored the same way as in the classical DEL protocol. Yel1 and Yel2 analogues that are efficacious in the HTS and classical DEL assay are analyzed for mitigation activity using this modified DEL protocol.
Six confirmed hits were also tested for radioprotection with the compounds being presented to irradiated cells at different time points following irradiation exposure. The DEL Plating Assay was used with a radiation sensitive Saccharomyces cerevisiae RS112 strain.
The general DEL Assay is described above. In this example, DEL assay is a genetic construct in the Saccharomyces cerevisiae RS112 strain where a plasmid with an internal fragment of the HIS3 gene has been integrated at the HIS3 locus, yielding an integrative disruption of the HIS3 gene. […] The construct reverts to HIS3+ by recombination between the two his3 deletion alleles which is, in 99% of the cases, associated with the deletion of the entire 6 kilobasepairs of DNA comprising the integrated plasmid. DEL events are inducible with a variety of DNA-assaulting agents: radiation, smoking, UV exposure, 92% of the known carcinogens, etc.
RS112 cells irradiated with 2000Gy show an induction of the deletion frequencies (DEL events) and roughly a 90% killing.

C3H mice [3] = assay: Recovery of the hematopoietic system after 6 Gy irradiation; type: in vivo, mouse
Source text: WBC-total white blood cells (K/uL), NE—neutrophils (K/uL), and LY—lymphocytes (K/uL). With 1—tail, Student's t-Student's t-test, WBC and NE, along with monocytes, eosinophils, and basophils (data not shown) are p<0.05.
RBC— red blood cells (M/uL), HB-hemoglobin (g/dL), and HCT-hematocrit (%).

C3H mice [4] = assay: Toxicity experiments in C3H mice; type: in vivo, mouse; conditions: 150 mg/kg, 75 mg/kg and 5 mg/kg; 120 days following the injections
Protocol: Having seen no adverse effects of the chemicals alone on mammalian cell models we performed a preliminary toxicity study on a group of C3H mice. […] In a pilot reproductive toxicity study, 12, week old female mice were paired up with 6 week old male mice and checked daily for the presence of a characteristic “plug” in the female vaginal canal as an indication of mating. As soon as the mating has occurred, males were removed and the females were treated weekly with 75 mg/kg s.c. throughout the gestation period and until the pups were weaned off (8 week treatment course). After weaning, treatment of the offspring was initiated at the same 75 mg/kg s.c. weekly dose. Controls were injected s.c. on the same schedule with the carrier (1N saline). Five treated and five control females gave birth to the same average number of pups per litter (n=6) without any detectable toxicities to the other. 3 litters of each treated and control groups survived to continue the study. No pathologies, toxicities nor adverse effects were observed. There are no developmental or teratogenic deficiencies in mice, average weights (21 g) are the same in both groups also.

OMM lymphocytes = assay: γH2AX assay, cigarette smoke extract induced double strand breaks; type: cell-based, mouse; conditions: 3 puff/mL cigarette smoke extract, 6 and 24 hrs, Ogg−/− Myh−/− mice
Protocol: Whole peripheral blood lymphocytes were taken from WT, and OMM double knockout mice (mice deficient in DNA repair pathways observed in smoking-induced lung cancer) and were administered 3 puff/mL of Cigarette smoke extract (CSE) alone or co-incubation of 3 puff/mL Cigarette smoke extract and 10 uM Yel 002 for 3, 6, and 24 hrs and the amount of double stranded breaks were assessed via γH2AX assay. […] Statistical significance was assessed via a 1 way ANOVA test with Tukey's post-hoc analysis. […] Statistical significance was assessed via a 1 way ANOVA test with Tukey's post-hoc analysis. N=3 in each group.

C3H mice [5] = assay: Radioprotection experiments in C3H mice (8Gy, compound before exposure); type: in vivo, mouse; conditions: 8Gy (LD100/30), 75 mg/kg
Source text: Only the results for Compound 4 are significant at Day 14 post irradiation. Irradiated controls died on Day 13 while most of the treated mice survived to Day 18, and mice in group 4 and 1 have survived to Day 24. The limitation of this study was the number of mice in each group due to the small quantities of the commercially available compounds.

primary keratinocytes = assay: Proliferation of primary keratinocytes after 5Gy irradiation; type: cell-based, human; conditions: 5 uM, cultured 11 days
Protocol: After the IR the cells were treated with Yel002 and cultured for 11 days.

DEL RS112 tester strain = assay: DEL assay, damage by chemical carcinogen MMS; type: cell-based, Saccharomyces cerevisiae; conditions: 15 uM, 1 hrs after exposure to MMS
Source text: A DEL assay, described above, is used for assessing mitigation of damage induced by chemical carcinogens by compounds of invention.
Tests in this example show administration of Yel001 and Yel002 confers reduction against chemical carcinogen Methyl methanesulfonate (MMS) in vitro.
Reduction of cytotoxicity and genotoxicity with Yel002 is p<0.007 and p<0.04 restively; p-values for Yel001 are 0.0007 (genotoxicity) and 0.1 for cytotoxicity.

C3H mice [6] = assay: Mitigation of radiation-induced lethality in C3H mice (8Gy, LD100/30)
Protocol: Radiomitigation studies were conduced by pre-treating C3H mice with the compounds of interest at as concentration of 75 mg/kg and at 24 hrs and 1 hr before an 8 Gy exposure. On a 5×24 mitigation treatment protocol mice were first lethally irradiated with 8 Gy and 24 hrs later received the first subcutaneous injection with the compound suspension with subsequent injections at 48, 72, 96, and 120 hrs. The concentration of the compound in the suspension was 75 mg/kg carrier with either 1N saline or phosphate buffer solution (PBS).
C3H mice in the mitigation experiment were irradiated with 8Gy and then injected with 75 mg/kg 1 hr post exposure and then again 25 hrs post exposure.

COc1ccc2cc(-c3nc4ccc(C)cn4c3NCc3ccco3)c(=O)[nH]c2c1 [Yel002]
doubling time of the cells [1]: extended the doubling time
progression into senescence ([1]; 5 uM): decreased progression of cells into senescence; also recorded: decreases the progression into senescence
UV genotoxicity and cytotoxicity ([2]; 15 uM, P<0.05): reduces cell death and genotoxicity; also recorded: significantly reduces genotoxicity and cytotoxicity
survival ([2]; 4000 J/m^2 UV, 15 uM at 60 minutes, untreated 0.64%): 1.84%
reduction of DEL events (gene reversion frequency) (RS112 cells; compound added 0-60 min after 2000Gy, p<0.05): decreased DEL frequencies; also recorded: significant reduction of genetic instability
mitigation of radiation cytotoxicity (survival) (RS112 cells; compound added at time points after 2000Gy, significant only at 60 min): increased survival fractions; also recorded: mitigation of radiation cytotoxicity has been observed
recovery of total white blood cells, red blood cells, and platelets (C3H mice [3]; 75 mg/kg s.c. 5×24): increases the recovery
recovery of the hematopoietic system (C3H mice [3]; 75 mg/kg s.c. 5×24 hr schedule): promote the recovery of the hematopoietic system
adverse physiological or behavioral effects (C3H mice [4]): did not show any adverse physiological nor behavioral adverse effects
double strand breaks / average γH2AX per cell (OMM lymphocytes): reduces the number of DNA double strand breaks
double strand breaks / average γH2AX per cell (OMM lymphocytes; listed as YEL 002): significantly reduces cigarette smoke induced double strand breaks; also recorded: significantly decreases the amount of average γH2AX per cell
survival versus 8 Gy control group (C3H mice [5]; listed as 5): noticeable difference in survival
survival versus 8 Gy control group (C3H mice [5]; listed as Compound 5): increase in survival
proliferation as compared to controls (primary keratinocytes): increased proliferation
genotoxicity and cytotoxicity by MMS (DEL RS112 tester strain): reduction in genotoxicity and cytotoxicity; also recorded: can be mitigated
mitigation efficacy (C3H mice [6]; 8Gy, 75 mg/kg 1.25 protocol): show activity
mice survived LD100/30 irradiation (C3H mice [6]; 8Gy, 75 mg/kg at 1 hr and 25 hrs post exposure, past 30 days, first small study): 67%
survival at 30 days (C3H mice [6]; 8Gy, 75 mg/kg s.c. at 24, 48, 72, 96, 120 hrs (5×24)): 100% and 75%
survival at 30 days (C3H mice [6]; 8Gy, 75 mg/kg s.c. at 24, 48, 72, 96, 120 hrs (5×24), listed as Yel2): 100%
survival at 30 days (C3H mice [6]; 8Gy, 75 mg/kg s.c. at 1 hr and 25 hrs (1.25 schedule)): 88%
percentage of survivors (C3H mice [6]; 8Gy, both protocols, 252 days post irradiation): 40%
animals still alive beyond 30 day window (C3H mice [6]; 8Gy, both protocols, +292 days): 40%
survival, oral (gavage) administration (C3H mice [6]; 8Gy, oral gavage in saline, 5×24 schedule): 33%
dose modifying factor (DMF) (C3H mice [6]; at LD50/30, 7Gy to 9.1 Gy, 75 mg/kg 5×24 s.c.): 1.15
